These results are taken from patent US20060211073A1, “Assay for B-Raf activity based on intrinsic MEK ATPase activity” (priority 2005, published 2006).

As a reminder, the IC50 is the concentration that inhibits the measured activity by half. Higher therefore signals weaker potency.

In this test the target is T1, phosphoMEK (activated MEK-1) (Homo sapiens, UniProt Q02750).
T1 construct: purchased Upstate (Waltham, Mass.) #14-429, lot #26232U
Put plainly: ATPase activity of commercially acquired phosphoMEK in the absence of B-Raf. The test is classed as biochemical. Conditions: data not shown.

Each structure is given as a SMILES string. A value given as a limit tells only on which side of the number the result lay.

T1 sequence (Q02750 whole entry): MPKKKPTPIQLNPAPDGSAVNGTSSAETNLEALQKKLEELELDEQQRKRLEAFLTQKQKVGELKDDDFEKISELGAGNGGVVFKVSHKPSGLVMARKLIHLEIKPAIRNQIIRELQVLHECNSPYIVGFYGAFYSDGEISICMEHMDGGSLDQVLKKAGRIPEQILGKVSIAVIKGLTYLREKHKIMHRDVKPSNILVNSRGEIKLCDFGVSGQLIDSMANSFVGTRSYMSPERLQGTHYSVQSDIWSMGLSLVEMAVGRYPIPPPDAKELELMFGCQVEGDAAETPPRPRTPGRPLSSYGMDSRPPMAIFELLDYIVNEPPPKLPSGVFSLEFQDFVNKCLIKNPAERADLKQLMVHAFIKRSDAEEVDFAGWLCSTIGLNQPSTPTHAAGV

`CN(C)CCOc1ccc(-c2nc(-c3ccncc3)c(-c3ccc4c(c3)CC/C4=N\O)[nH]2)cc1` [SB-590885] showed an IC50 greater than 10 µM.
